The text below walks through data of PMC10906223 (JCI Insight, 2024).

Where “and” joins values, the source holds several entries; their conditions need not be identical. Equal entries are not always repeated.

Series [1] concerns murine dispersed islet cells. The experiment in a line: Glucagon secretion from murine dispersed islet cells. Format: cell-based, mouse. The conditions noted are these: for Secretion of glucagon: Rhy (2.5 µM) alone, listed as Rhy. Here is the method:
(§1) Pancreata of nondiabetic C57BL/6J mice were digested using collagenase P (Roche Diagnostics, catalog 11213873001), and islets were manually picked up using a stereomicroscope (ZEISS Stemi 305). […] Isolated mouse islets or provided human islets were dispersed as described ([28]). Briefly, 100–120 islets were washed 2 times using modified HBSS, then dispersed in 600 μL Accutase (Innovative Cell Technologies, catalog AT-104) by gently pipetting up and down for 7 minutes at 37°C. […] Following refreshing of KRBH, cells were dispensed in 8 microfuge tubes (2,000 cells/tube) and treated with WCDD301, preclustered Ephrin-A5 Fc, or preclustered Fc in the presence or absence of the competitive inhibitor of EphA4 receptor, rhyncophylline ([60]) (MilliporeSigma, catalog SML2345). In the presence or absence of these effectors, secretion assay was performed sequentially as shown in Supplemental Table 5. […] Preclustering of Ephrin-A5 Fc was done by mixing Ephrin-A5 Fc or Fc alone (BioLegend, catalog 790102) with anti-Fc antibody (Invitrogen, catalog A16086) (1:10 molar ratio) 20 minutes before treatment ([62]). […] Shedding of cleaved EphA4 was measured from the cell culture medium. Experiments were performed by dispersion of 200 islets, and EphA4 levels in media were measured by EphA4 ELISA (ABclonal, catalog RK06572).

The nature of series [2]: Microsomal stability assay, human liver microsomes. The conditions noted are these: for Remaining in hepatic microsomes (100 at 0 min): human microsomes, Figure 5C; for Hepatic clearance: predicted from microsomal data. Format: in vitro ADME. How it is done: (§2) A total of 445 μL of the working solution was transferred into prewarmed incubation plates for treated (T60) and control (NCF60) measurements. After preincubation (10 minutes at 37°C with constant shaking), 54 μL was transferred to the blank plate, followed by 6 μL of NADPH and 180 μL quenching solution. In parallel, 5 μL of WCDD301 (100 μM) was added into incubation plates (T60 and NCF60) containing microsomes and mixed thoroughly (3 times). For the NCF60 plate, 50 μL of buffer was added, mixed (thoroughly, 3 times), shaken, and incubated at 37°C for 60 minutes. In the quenching plate T0, quenching solution (180 μL) and NADPH cofactor (6 μL) were added. For T60 plate, 54 μL of the mixture was placed into the quenching plate (for T0 point), followed by adding 44 μL NADPH cofactor with shaking incubation at 37°C for 60 minutes. Quenching solution (180 μL) was added to quenching plates at 5, 15, 30, 45, and 60 minutes, and 60 μL of sample was transferred from T60 plate per time point to the quenching plates. For the NCF60 plates, 60 μL sample from the NCF60 incubation plate was transferred to the quenching plate (containing quenching solution) at the 60-minute time point. After plates were shaken for 10 minutes and centrifuged (1,750g, 20 minutes at 4°C), 80 μL of the supernatant was transferred into 240 μL HPLC water for LC-MS/MS analysis. The following first-order kinetic equation was used to calculate half-life (T1/2): [drawing 3]; when
(§3) Then, intrinsic clearance [CLint (microsomal; mic)] and hepatic clearance [CLint (liver)] were predicted using the following equations ([66]): […]

A short description of series [3]: Microsomal stability assay, CD-1 mouse liver microsomes. Format: in vitro ADME. The conditions noted are these: for Remaining in hepatic microsomes (100 at 0 min): mouse microsomes, Figure 5D; for Hepatic clearance: mouse, predicted from microsomal data. How it is done: as §2, §3
The test system of series [4] is human donor dispersed islet cells. The experiment in a line: Glucagon secretion from healthy human donor dispersed islet cells. Type of series: cell-based. The following applies: human α cells; range of concentrations; Supplemental Figure 1A. How it is done: as §1
The Integrated Islet Distribution Program provided us human donor islets with their characteristics (Supplemental Table 6). Islets were centrifuged at 500g for 3 minutes, resuspended in CMRL 1066 medium (Gibco, catalog 1150-037) containing 11 mM glucose, and rested in an incubator overnight.
For the hormone secretion assay, islets or dispersed islet cells were adapted in KRBH buffer containing 11 mM glucose for 1 hour. Then, after 2 washes in HBSS containing 11 mM glucose, islets or cells were treated in the following sequential order in the presence or absence of WCDD301: incubation in KRBH (1 mM glucose, 30 minutes) followed by medium collection, incubation in KRBH (11 mM glucose, 30 minutes) followed by medium collection.

Series [5] in a line: Plasma stability assay, human plasma. Type of series: in vitro ADME. The following applies: for Ln (% Remaining): human plasma, 37°C, Figure 5A. Here is the method: (§4) Pooled frozen plasma of CD-1 mice (n = 20; catalog MSE00PLK2M2N, Beijing Vital River Laboratory Animal Technology) or humans (n = 6, catalog […]2P2N, Bioreclamation IVT), equal numbers of males and females, was thawed in a 37°C water bath, and residual clots were removed by centrifugation (500g for 5 minutes). Plasma (98 μL) was aliquoted in each well of 96-well reaction plates using an Apricot automation workstation. WCDD301 (100 μM) or propantheline bromide (100 μM, as a positive control) was added (2 μL/well) to sets of wells assigned to blank or time points (T0, T10, T30, T60, and T120 minutes) and incubated at 37°C. At each time point, the reaction was stopped by adding stop solution (500 μL; a mixture of 200 ng/mL of tolbutamide and labetalol in acetonitrile), mixed thoroughly, sealed, shaken (20 minutes), and centrifuged (1,750g, 4°C, 20 minutes). A total of 150 μL of the supernatant from each well of the reaction plate was transferred to its corresponding bioanalysis plate for LC-MS/MS analysis. The remaining level (%) of the WCDD301 was calculated using the following equation: remaining (%) = (PAR at each time point/PAR at T0) × 100. PAR stands for the peak area ratio of the WCDD301 versus internal standard.

Series [6] in a line: Plasma stability assay, CD-1 mouse plasma. Format: in vitro ADME. The conditions noted are these: for Ln (% Remaining): mouse plasma, 37°C, Figure 5B. Here is the method: as §4

In the case of `N=C(N)NCCC[C@H](N)C(=O)O` [Arginine, reference compound], in series [1] (Arginine 25 mM alone, Supplemental Figure 2), the “Effect on glucagon secretion” value is reported as “significantly increased glucagon secretion”.
On to `O=C(O)Cc1ccccc1Nc1c(Cl)cccc1Cl` [Diclofenac], for which the Intrinsic microsomal clearance in series [2] (human) amounted to 313.9 µL/min/mg. In addition, the “Remaining in hepatic microsomes (100 at 0 min)” value (from here on “Remaining in hepatic microsomes”) is on record as 48.7 in series [2] (5 min); 9.3 in series [2] (15 min); 0.9 in series [2] (30 min); 85.5 in series [3] (5 min); 77.8 in series [3] (15 min); 58.6 in series [3] (30 min). Further, the “Remaining in hepatic microsomes” value in series [3] (45 min) came out at 52.8; in series [3] (60 min) it was 39.3. For the same compound, in series [2] (human, liver microsomes), the half-life (in general, the time in which the quantity being followed falls by half) at 1 µM was found to be 4.4 min. Besides, the figures for the Hepatic clearance in series [2] (human) and in series [3] were 282.5 mL/min/kg and 115.5 mL/min/kg, respectively.
With `COc1cc2nc(N3CCN(C(=O)C4COc5ccccc5O4)CC3)nc(N)c2cc1OC` (centres unmarked) [Doxazosin, reference compound], the “Effect on glucagon secretion” value is “increased glucagon secretion” in series [1] (mouse α cells, range of concentrations, Supplemental Figure 1B-E) and “increased glucagon secretion” in series [4].
In the case of `CC(C)[N+](C)(CCOC(=O)C1c2ccccc2Oc2ccccc21)C(C)C` [Propantheline, propantheline bromide], the half-life at 2 µM came out at 9.8 min in series [5] (both sexes, human, plasma) and 34.3 min in series [6] (both sexes, CD-1, mouse, plasma). Moreover, the “Ln (% Remaining)” value in series [5] (10 min) is reported as -0.39; in series [5] (30 min), -2.06; in series [5] (60 min), -4.13; in series [6] (10 min), -0.31; in series [6] (30 min) it was -0.9; in series [6] (60 min), -1.58. Besides, the “Ln (% Remaining)” value in series [6] (120 min) is recorded as -2.45.
`C[C@]12CC[C@H]3[C@@H](CCC4=CC(=O)CC[C@@]43C)[C@@H]1CC[C@@H]2O` [Testosterone] displayed an Intrinsic microsomal clearance in series [2] (human) of 95.6 µL/min/mg. In series [2] (human), this compound showed a Microsomal half-life of 14.5 min. The “Remaining in hepatic microsomes” value in series [2] (5 min) came out at 78.1; in series [2] (15 min), 33; in series [2] (30 min), 12.9; in series [2] (45 min) it was 8.4; in series [2] (60 min), 6.4; in series [3] (5 min), 43.1. Besides, the “Remaining in hepatic microsomes” value is 11.2 in series [3] (15 min) and 2 in series [3] (30 min). Also, the Hepatic clearance in series [2] (human) was 86 mL/min/kg; in series [3], 1018.5 mL/min/kg. This compound also registered a half-life at 1 µM in series [3] (CD-1, mouse, liver microsomes) of 5.4 min. In series [3] (CD-1, mouse, liver microsomes, read-out: Intrinsic microsomal clearance), the microsomal CLint at 1 µM worked out at 257 µL/min/mg.
With `CC[C@H]1CN2CC[C@]3(C(=O)Nc4ccccc43)[C@@H]2C[C@@H]1/C(=C\OC)C(=O)OC` [rhyncophylline, reference compound], the Secretion of glucagon in series [1] (Glucose (1 mM), Figure 1H) was 0.87 and 0.81 and 0.85 and 0.79 and 0.82; in series [1] (Glucose (11 mM), Figure 1H), 0.41 and 0.5 and 0.38 and 0.45 and 0.4. In addition, in series [1] (competitive inhibitor of EphA4, Figure 1H), the “Effect of EphA4 inhibition on suppression of glucagon secretion” value was “abolished the suppressive effect of both Ephrin-A5 and 1.5 μM WCDD301 on glucagon secretion”.
